Where two headings read alike, the source gives them in different places.
Columns and labels:
[1] = TEAC method (Trolox Equivalent Antioxidant Capacity Assay); type: biochemical; settings: ratio of gradient to gradient of Trolox; 650 nm, 37 °C, about 90 minutes
Description: This assay is used to measure the total antioxidant activity of pure substances, biological fluids and plant compounds and is based on the reaction of antioxidants with the cation radical ABTS·^+ (2,2'-azinobis(3-ethylbenzothiazolin-6-sulphonate)). This cation radical is metastable and has to be generated just before the experiment by reacting ABTS with hydrogen peroxide in the presence of HRP. This radical can be reduced, with consequent loss of absorbance, by an antioxidant whose scavenging capacity can be measured spectrophotometrically at 650 nm. The test is carried out at 37 °C and the results are obtained from a comparison with Trolox (a synthetic antioxidant and hydrophilic analogue of vitamin E).
The ABTS solution S1 was prepared as follows: • 20 mg of ABTS were added to 50 mM of citric acid buffer (40 ml) at pH=4.5 and to the resulting solution there was added an aqueous solution of HRP (4.4 mg, 400 µl) and an aqueous solution of H2O2 (10 µl of a 30% solution diluted with 16.3 ml of water).
For each of the compounds (1)-(11), as synthesized above, there was prepared a 600 µM solution in water, methanol or DMSO according to its solubility, as well as a Trolox solution as reference.
Each solution was diluted to produce 6 solutions each at a concentration between 25 µM and 300 µM. From each of the diluted and divided solutions, there were withdrawn 20 µl to which 200 µl of solution S1 were then added.
The decrease in absorbance of each solution thus obtained was monitored at 650 nm until a stable value was reached (about 90 minutes).
For each set of 6 solutions and for the reference trolox solution, the absorption was given in graph form as a function of the amount of compound (nmol) in the solution. The gradient of the straight line obtained by linear interpolation was determined according to the least squares method. The TEAC value of each compound of the invention is given in the table below and is expressed as the ratio between the gradient of the resulting straight line and the gradient of the reference (trolox) straight line.

[2] = test system: doxorubicin-induced cerebral oxidative stress in mice; assay: In vivo assay of cerebral oxidative stress induced in mice by doxorubicin (model and oxidized animals); settings: for inhibition in vivo at 50 mg/kg / change in vivo at 50 mg/kg: Mus musculus; for inhibition in vivo at 50 mg/kg: read-out: inhibition of the doxorubicin effect; for change in vivo at 50 mg/kg / mean % effect relative to doxorubicin alone, all parameters (Vehicle): oxidized mice; for mean % effect relative to doxorubicin alone, all parameters (Vehicle): computed as a function of the vehicle
Method: The assay was carried out on compounds (1)-(5) and (7)-(11) and on edaravone (E) as comparative compound.
(§1) 10 mice were used for each treatment group. For each compound 50 mg/kg were administered intraperitoneally (IP) for three consecutive days (day 0, 1 and 2); half the animals (5) also received IP 16.7 mg/kg of doxorubicin immediately after the first treatment (day 0). On the day after the last administration (day 3) the animals were killed by neck dislocation and the brains were removed, weighed and frozen in liquid nitrogen.
(§2) For the analyses of oxidative stress, 100 mg/ml of brain homogenate was prepared in HEB^(*) buffer (pH 7.4 EDTA/HEPES^(**)) containing a mixture of enzyme inhibitors (Leupeptin, Pepstatin, Aprotinin, BHA).
(§3) The evaluation parameters were: • BrW/BWi: ratio between final brain weight and initial body weight (day 0); • Prot. Hmg: total proteins in the homogenate (BCA method, i.e. bicinchoninic acid); • Prot. Ox: oxidized proteins in the Hmg by means of a colorimetric method using dinitrophenylhydrazone (DNPH); • GSH: reduced glutathione in the supernatant (sn) of the Hmg, obtained after precipitation with metaphosphoric acid (MPA), by means of a colorimetric method using dithiodinitrobenzene (DTNB); • CAT: catalase in the Hmg by a colorimetric method using potassium dichromate; • SOD: superoxide dismutase by a colorimetric method using SOD Reagent (xanthine, EDTA, nitroblue tetrazole, Na2CO3, BSA, i.e. bovine serum albumin); • GST: glutathione S-transferase in the supernatant by a colorimetric method using chlorodinitrobenzene (CDNB) and GSH; and • GPx: glutathione peroxidase in the supernatant after addition of GSH and t-BuOOH, heating and precipitation with MPA; followed by GSH method with DTNB. The assay was performed on the compounds (1)-(5) and (7)-(11) and on edaravone (E), as comparative compound.
The mean effect (n=5 experiments) of doxorubicin (D), i.e. "oxidized" animal, relative to the vehicle (V), the vehicle representing the healthy animal.
All the parameters, with the exclusion of Brain/BWi and Prot. Hmg, were normalized for total Hmg proteins. The D value standard deviations and the % incidence relative to V are given in italics.
The effect of the tested compounds on the "oxidized" animals was given as % inhibition relative to the percentage change due to doxorubicin alone. The effect of the compounds on the oxidized animals can be expressed both as a function of the values of the vehicle (healthy, vehicle only) and as a function of the value of its own (healthy, compound only): • Vehicle: percentage [(Compound+D)/V]x100/[(V+D)/V]x100 • Its own: percentage [(Compound+D)/Compound]x100/[(V+D)/V]x100
Again in this case, the mean % effect relative to doxorubicin alone could be given for all the parameters simultaneously, as an approximate index of effectiveness on the cerebral oxidative state of the animal.

healthy animals = assay: Effect of the compounds on healthy animals (same in vivo assay, cerebral oxidative parameters); set-up: species or system mice
Method: as §1, §2, §3
The mean % effect, on all the parameters simultaneously, of the triple treatment in healthy animal, as mean percentage change relative to the vehicle. This value is useful as an approximate safety index of the oxidative state of the brain, i.e. the capacity of the compounds of the invention not to alter cerebral homeostasis in healthy animals.

[3] = Brain-to-plasma concentration ratio in mice; type: in vivo, Female CD-1 mice; settings: female, CD-1, mouse, ip, 25 mg/kg intraperitoneal, area under the curve of brain and plasma concentrations 0 to 60 minutes, read-out: B/P ratio
Method: The ability of the compounds of the invention to penetrate the brain was investigated by measuring their brain/plasma (B/P) ratio in mice following intraperitoneal administration.
Female CD-1 mice were used (n=3 for each time period) and received the compounds of the invention by intraperitoneal administration, in 25 mg/kg doses in a 0.5% NaHCO3 buffer (pH 8.3). At predefined intervals following said administration, i.e. 5, 15, 30 and 60 minutes, the mice were killed and both plasma and total brain tissue were collected.
Specifically, after anaesthesia with ether, the animals were bled by blood withdrawal from the abdominal aorta then immediately decapitated. The blood samples were collected into plasma separator tubes containing Li-Heparin as anticoagulant and centrifuged. The resulting plasma was then stored at -20 °C. The brain was rapidly removed from the cranium and weighed, subsequently frozen and stored at -20 °C before treatment by homogenization and HPLC analysis.
The plasma was thawed and mixed with an equal volume of the extraction solution.
1 ml of solution was then extracted by adding 20 µl of 70% HClO4, then centrifuged at 15,500g for 5 minutes and injected into the HPLC.
Each brain was thawed and homogenized with the extraction solution to provide a final composition of 4 ml/1g of tissue by means of an Ultra-Turrax blender and sonicated for 5 minutes. After centrifugation of the homogenate at 15,500g for 5 minutes, the resulting solution was treated with HClO4, as indicated for the plasma. Specific chromatographic conditions had been developed for each analyte, the calibration curve being constructed for plasma and brain homogenate.

[4] = ip, overall, with respect to the vehicle
[5] = ip, % inhibition relative to change due to doxorubicin alone, vs its own, read-out: Brain/BWi its own
[6] = ip, % inhibition relative to change due to doxorubicin alone, vs its own, read-out: CAT/pr its own
[7] = ip, % inhibition relative to change due to doxorubicin alone, vs its own, read-out: GPX/pr its own
[8] = ip, % inhibition relative to change due to doxorubicin alone, vs its own, read-out: GSH/pr its own
[9] = ip, % inhibition relative to change due to doxorubicin alone, vs its own, read-out: GST/pr its own
[10] = ip, % inhibition relative to change due to doxorubicin alone, vs its own, read-out: Prot. Hmg its own
[11] = ip, % inhibition relative to change due to doxorubicin alone, vs its own, read-out: Prot. Ox/pr its own
[12] = ip, % inhibition relative to change due to doxorubicin alone, vs its own, read-out: SOD/pr its own
[13] = ip, % inhibition relative to change due to doxorubicin alone, vs vehicle, read-out: Brain/BWi vehicle
[14] = ip, % inhibition relative to change due to doxorubicin alone, vs vehicle, read-out: CAT/pr vehicle
[15] = ip, % inhibition relative to change due to doxorubicin alone, vs vehicle, read-out: GPX/pr vehicle
[16] = ip, % inhibition relative to change due to doxorubicin alone, vs vehicle, read-out: GSH/pr vehicle
[17] = ip, % inhibition relative to change due to doxorubicin alone, vs vehicle, read-out: GST/pr vehicle
[18] = ip, % inhibition relative to change due to doxorubicin alone, vs vehicle, read-out: Prot. Hmg vehicle
[19] = ip, % inhibition relative to change due to doxorubicin alone, vs vehicle, read-out: Prot. Ox/pr vehicle
[20] = ip, % inhibition relative to change due to doxorubicin alone, vs vehicle, read-out: SOD/pr vehicle
[21] = 50 mg/kg IP x3 days + doxorubicin, computed as a function of its own (healthy, compound only), read-out: mean % effect relative to doxorubicin alone, all parameters (Its own)
[22] = 50 mg/kg IP x3 days + doxorubicin
[23] = healthy mice, 50 mg/kg IP for three consecutive days, mean over all parameters, D = doxorubicin alone, 50 mg/kg
[24] = healthy mice, 50 mg/kg IP x3 days, percentage change relative to the vehicle
[25] = ip, overall, compared with its own vehicle

Structure (SMILES)	TEAC [1]	inhibition in vivo at 50 mg/kg [2, 4]	change in vivo at 50 mg/kg [2, 5]	change in vivo at 50 mg/kg [2, 6]	change in vivo at 50 mg/kg [2, 7]	change in vivo at 50 mg/kg [2, 8]	change in vivo at 50 mg/kg [2, 9]	change in vivo at 50 mg/kg [2, 10]	change in vivo at 50 mg/kg [2, 11]	change in vivo at 50 mg/kg [2, 12]	change in vivo at 50 mg/kg [2, 13]	change in vivo at 50 mg/kg [2, 14]	change in vivo at 50 mg/kg [2, 15]	change in vivo at 50 mg/kg [2, 16]	change in vivo at 50 mg/kg [2, 17]	change in vivo at 50 mg/kg [2, 18]	change in vivo at 50 mg/kg [2, 19]	change in vivo at 50 mg/kg [2, 20]	change in vivo at 50 mg/kg [2, 21]	mean % effect relative to doxorubicin alone, all parameters (Vehicle) [2, 22]	further results
CC1(C)CC(=O)C(C2CCCCN2O)C(=O)C1 (stereo not drawn) [(3), 2-(1-hydroxypiperidin-2-yl)-5,5-dimethylcyclohexane-1,3-dione]	1.0	≥ 50%	7.2%	-87.1%	-108%	-11.2%	-50.5%	-125%	195%	30.8%	-53.6%	-23.5%	-91.9%	-49.6%	-110%	-114%	-45.9%	86.7%	-76.6%	-50.3%	inhibition of the doxorubicin effect ([2]; overall, compared with its own vehicle): at the level of edaravone; Average % variation with respect to the vehicle (healthy animals; [23]): did not significantly alter the parameters; Average % variation with respect to the vehicle (healthy animals; healthy mice, 50 mg/kg IP for three consecutive days, mean over all parameters, D = doxorubicin alone, listed as V+(3), 50 mg/kg): -0.2%; Brain/BWi (healthy animals; [24]): 1.4%; CAT/pr (healthy animals; [24]): -10.5%; GPX/pr (healthy animals; [24]): -1.8%; GSH/pr (healthy animals; [24]): 2.0%; GST/pr (healthy animals; [24]): 4.1%; Prot. Hmg (healthy animals; [24]): 2.5%; Prot. Ox/pr (healthy animals; [24]): -8.6%; SOD/pr (healthy animals; [24]): -2.8%; Kp [3]: > 0.1
CC1(C)CC(=O)C(C2COCCN2O)C(=O)C1 (stereo not drawn) [(4), 2-(4-hydroxymorpholin-3-yl)-5,5-dimethylcyclohexane-1,3-dione]	1.2	≥ 50%	-26.1%	-102%	-105%	-77.6%	-147%	-106%	19.2%	-68.5%	-18.8%	-94.7%	-83.8%	-34.4%	-120%	-80.7%	-4.1%	-28.7%	-84.1%	-58.1%	inhibition in vivo at 50 mg/kg [2, 25]: ~85%; Average % variation with respect to the vehicle (healthy animals; [23]): did not significantly alter the parameters; Average % variation with respect to the vehicle (healthy animals; healthy mice, 50 mg/kg IP for three consecutive days, mean over all parameters, D = doxorubicin alone, listed as V+(4), 50 mg/kg): -2.1%; Prot. Hmg (healthy animals; [24]): 1.9%; Brain/BWi (healthy animals; mouse, in vivo, ip, 50 mg/kg): -0.1%; CAT/pr (healthy animals; mouse, in vivo, ip, 50 mg/kg): -0.7%; GPX/pr (healthy animals; mouse, in vivo, ip, 50 mg/kg): -2.0%; GSH/pr (healthy animals; mouse, in vivo, ip, 50 mg/kg): -4.0%; GST/pr (healthy animals; mouse, in vivo, ip, 50 mg/kg): -5.2%; Prot. Ox/pr (healthy animals; mouse, in vivo, ip, 50 mg/kg): -3.0%; SOD/pr (healthy animals; mouse, in vivo, ip, 50 mg/kg): -5.8%; Kp [3]: > 0.1
O=C1c2ccccc2C(=O)C1C1COCCN1O (stereo not drawn) [(8), 2-(4-hydroxymorpholin-3-yl)-2H-indene-1,3-dione]	1.5		-103%	-28.8%	-2%	-139%	-14.3%	-20.5%	-96.5%	-11.9%	0%	27.3%	29.3%	-48%	68.1%	49.4%	-65.7%	11.9%	-45.6%		inhibition in vivo at 50 mg/kg [2, 25]: 45 to 50%; Average % variation with respect to the vehicle (healthy animals; mouse, in vivo, ip, 50 mg/kg): -8.0%

Reference: patent publication EP2345639A1, “Cyclic hydroxylamine derivatives, their preparation and use as antioxidants” (ABIOGEN PHARMA S.p.A., priority 2009, dated 2011)
